Patent US20030114357A1, “Methods related to the A-C repeat Z-sequence upstream from the aldose reductase gene” (priority 2001, published 2003)

Experiments:
[1] = test system: subjects with painful, symmetrical polyneuropathy; assay: Peroneal motor nerve conduction velocity (NCV), double-blind study placebo vs zopolrestat, 12 week change; assay type: in vivo, human; conditions: placebo vs combined treatment groups (250 and 500 mg zopolrestat dose)
From the text: (§1) Diabetic neuropathy, a complication arising from diabetes mellitus, is an example of conditions that are mediated by having at least one allele of the (A-C)n repeat Z sequence associated with the aldose reductase gene wherein the value of n is less than 24. […] Such evaluation may be performed by measuring changes in nerve conduction velocity (NCV) in the following nerves: median motor, ulnar sensory, median sensory (both distal and proximal segments), peroneal motor and sural sensory. Testing is performed prior to the initiation of administration of the Agent and one or more times thereafter. An exemplary schedule for neuroelectrophysiology evaluation is prior to initiation of administration of the Agent and at weeks 12, 24 and 52 following initiation of administration.
(§2) Tables 1 and 2 illustrate the effect of administration of the aldose reductase inhibitor, zopolrestat, on NCV of subjects having one and two alleles of the Z sequence having less than 24 A-C repeats. […] The NCV results from Tables 1 and 2 where obtained according to the protocol described in Example 2 of the General Experimental Procedures.
(§3) The terms “1 short” and “2 short” as used in Tables 1 and 2 refers to the number of alleles found in each subject where n has a value of less than 24 for the (A-C)n repeat Z sequence. “1 short” refers to subjects having only one allele wherein n is less than 24. “2 short” refers to subjects having two alleles wherein n is less than 24. […]
Nerve Conduction Velocity (“NCV”) is defined as the maximal speed in which Compound Action Potentials are propagated within a nerve, generally reflecting the activity in the fastest and largest neurons and calculated in meters per second by dividing distance in mm by Latency. […]
3. […] Skin temperature is measured prior to and at the conclusion of testing at sites midway between the stimulating and recording electrodes for each limb. Temperature is monitored and adjusted during testing using either a feedback controlled infrared radiant heater, a water bath or a temperature controlled blanket wrap. […]

[2] = test system: subjects with painful, symmetrical polyneuropathy; assay: Composite neuroelectrophysiology (NE) parameter (modified O'Brien score), double-blind study placebo vs zopolrestat, 12 week change; assay type: in vivo, human; conditions: placebo vs combined treatment groups (250 and 500 mg zopolrestat dose)
From the text: as §1, §2
Composite NE parameter is calculated according to the technique described in O'Brien, P. C., Biometrics, 40, 1079-1087 (1984). For ease of interpretation, the standard composite NE parameter of O'Brien is slightly modified for Tables 1 and 2. The standard O'Brien method would give values of 0 to 1. For the modified O'Brien score, the standard O'Brien value is reduced by 0.5 to give a value in the range of −0.5 to 0.5 with an expected value of 0. Values lower than 0 correspond to an overall composite NE decrease relative to the entire patient population, while values greater than 0 correspond to a relative increase.
as §3

O=C(O)Cc1nn(Cc2nc3cc(C(F)(F)F)ccc3s2)c(=O)c2ccccc12 [zopolrestat]
Peroneal Motor 12 Week Change Mean Treatment Effect ([1]; Group 1 Short (subjects with only one Z-sequence allele n<24)): 0.22 | Peroneal Motor 12 Week Change Mean Treatment Effect ([1]; Group 2 Short (subjects with two Z-sequence alleles n<24)): 2.35 | Peroneal Motor 12 Week Change Mean Treatment Effect ([1]; Group Combined (1 short + 2 short Z-sequence alleles, n<24), NCV, calculated in meters per second): 1.63 | Composite NE Parameter (modified) 12 Week Change Mean Treatment Effect ([2]; Group 1 Short (only one Z-sequence allele n<24)): 0.04 | Composite NE Parameter (modified) 12 Week Change Mean Treatment Effect ([2]; Group 2 Short (two Z-sequence alleles n<24)): 0.09 | Composite NE Parameter (modified) 12 Week Change Mean Treatment Effect ([2]; Group Combined, range -0.5 to 0.5): 0.07
